Measured values published in patent US10501479B2, “Benzenesulfonyl-asymmetric ureas and medical uses thereof” (HELSINN HEALTHCARE SA, priority 2016, dated 2019).
Where two headings read alike, the source gives them in different places.

Key:
[1] = target: T1, recombinant human ghrelin receptor (HEK293/GRLN) (Homo sapiens, UniProt Q92847); experiment: Ghrelin inverse agonist potency (EC50) with IP-1 (IP-One HTRF) assay; type: cell-based; conditions: IP-1 assay
T1 construct: expressed in transfected cells
T1 sequence (Q92847 whole entry): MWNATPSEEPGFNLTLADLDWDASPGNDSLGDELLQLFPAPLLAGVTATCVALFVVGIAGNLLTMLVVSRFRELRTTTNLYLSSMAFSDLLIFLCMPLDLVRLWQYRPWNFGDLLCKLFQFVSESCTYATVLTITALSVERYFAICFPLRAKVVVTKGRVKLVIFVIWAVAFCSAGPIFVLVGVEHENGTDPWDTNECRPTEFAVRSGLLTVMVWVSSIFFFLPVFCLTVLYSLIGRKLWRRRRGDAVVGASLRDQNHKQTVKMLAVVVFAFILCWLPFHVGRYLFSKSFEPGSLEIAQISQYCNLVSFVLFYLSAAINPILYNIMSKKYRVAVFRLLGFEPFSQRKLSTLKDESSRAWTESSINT
In short: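 HEK293/GRLN cells were seeded 18-22 hours before the test, then exposed to compound in stimulation buffer for 1 hour at 37° C, 5% CO2. IP-1 was detected by IP-One HTRF (IP1-d2 plus Tb-cryptate, 1 hour RT), reading 620 and 665 nm; the inverse agonist EC50 was derived from this.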

[2] = target: T2, GHSR-1a (HEK293/GHSR1a cell line) (Homo sapiens, UniProt Q92847); experiment: Ghrelin agonist potency (EC50) with calcium FLIPR assay; type: cell-based
T2 construct: expressed in transfected cells; host or cells: HEK293/GHSR1a cell line
T2 sequence (Q92847 whole entry): as above
In short: (§1)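 HEK293/GHSR1a cells, seeded 24 hr ahead and loaded with calcium dye 30-60 min, were read by FLIPR fluorescence for 2 min after addition at t=20 sec. Agonism: compound alone, EC50 from dose-response. Antagonism: compound plus 10 nM ghrelin, IC50 from reduction of ghrelin response.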

[3] = target: T2, GHSR-1a (HEK293/GHSR1a cell line); experiment: Ghrelin antagonist potency (IC50) with calcium FLIPR assay, ghrelin 10 nM; type: cell-based
In short: as §1

[4] = Metabolic stability in human liver microsomes; type: in vitro ADME
In short: (§2)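 Compound incubated with human, dog, rat or mouse liver microsomes in 100 mM potassium phosphate, pH 7.4, at 37 °C. Reaction started with an NADPH regenerating system. Samples quenched at 0, 10, 30 and 90 min, and remaining compound measured by LC-MS/MS.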

[5] = Metabolic stability in rat liver microsomes; type: in vitro ADME
Method: Metabolic Stability Study
The metabolic stability of compounds in human, dog, rat and mouse liver microsomes was performed according the experimental conditions reported below:
• a) Prepare the following 5 stock solutions: • 1. Test compound stock solutions: dilute 10 mM solution of dextromethorphan (Dtr) in DMSO, 10 mM solution of diphenhydramine (DPA) in DMSO, 10 mM solution of omeprazole (Ome) in DMSO, 10 mM solution of verapamil (Ver) in DMSO, and 10 mM of an inverse agonist compound in DMSO to 0.25 mM solution each with acetonitrile/water (70/30). • 2. Buffer: 100 mM potassium phosphate Buffer (PBS) at pH 7.4 • 3. Liver microsomes (20 mg/ml): Thaw in 37° C. water bath quickly • 4. 2000 μL: of NADPH regenerating system (1.3 mM). Place this system on ice before use:
• 5. […] The test compound concentration in the wells, measured by LC-MS/MS, represents the concentration at time=0. • f) To determine the test compound concentration when t≠0, pre-incubate the NADPH regenerating system and the incubation plate containing the remaining 320 μL of incubation mixture (microsomes protein and test compound) for 5 minutes at 37° C. • g) Start the incubation reaction by adding 80 μL NADPH regenerating system to each well containing the remaining 320 μL incubation mixture. • h) After 10 min., 30 min., and 90 min. of incubation at 37° C., transfer 100 μL of the incubation mixture (microsomes protein, test compound, and NADPH) into the wells of a stop plate pre-filled with 300 μL of the cold quench solution. Shake well. • i) Centrifuge the stop plate at 5000×g for 10 minutes. Collect and dilute the supernatant 3 times with distilled water. Sample and analyze the test compound concentration for all the wells by LC-MS/MS. Animal PK Studies via i.v. (intravenous), p.o. (orally) and s.c. (subcutaneous) administrations

[6] = Metabolic stability in mouse liver microsomes; type: in vitro ADME
In short: as §2

[7] = Animal PK study in rat via i.v., p.o. and s.c. administration; type: in vivo; conditions: for half-life: plasma, ip, read-out: PK T1/2 i.p.; for half-life / PK CL i.p. / PK Vd i.p.: rat (R), i.p.
[8] = Animal PK study in mouse via i.v., p.o. and s.c. administration; type: in vivo
Method: All treated animals received a single dose of a test compound (either through i.v., p.o., or s.c. administration) according to the regimen shown in the following table:
For oral dose groups, appropriate amount of test compound was prepared in the following formulation carrier: 1% DMSO (increase to 5% maximum if necessary) and 0.5% Methycellulose. Each mouse or rat received by oral gavage 10 mL/kg of the formulation mixture.
For i.v. and s.c dose groups, appropriate amount of test compound was dissolved in 1% DMSO (increase to 5% maximum if necessary), 99% of 20% HP-β-Cyclodextron (w/v). The pH was adjusted accordingly. Each mouse or rat received 5 mL/kg of the formulation mixture. i.v. dose was administered by tail vein injection. Subcutaneous injection was administered over the shoulders, into the loose skin over the neck. At designated time points (e.g., i.v. and s.c.: 0.083, 0.25, 0.5, 1, 2, 4, 8 and 24 hrs; p.o.: 0.25, 0.5, 1, 2, 4, 8 and 24 hrs), systemic samples of blood (50 μL in mouse or 500 μL in rat) were collected by puncture (submandibular vein in mouse or jugular vein in rat) into vacutainers containing EDTA-K2 as anti-coagulant. The blood was centrifuged at 6000 rpm for 8 min at 4° C. to obtain plasma. All plasma samples were stored at −20° C. All plasma samples were added to acetonitrile for protein precipitation and quantitatively analyzed by LC-MS/MS.

[9] = ghrelin inverse agonist potency, read-out: Activity EC50
[10] = ghrelin agonist potency, read-out: Activity EC50/EMax
[11] = ghrelin antagonist potency, read-out: Activity IC50
[12] = inverse agonist potency, read-out: EC50 (Activity)
[13] = ghrelin antagonist potency, read-out: IC50 (Activity)

| Compound | EC50 [1, 9] [nM] | EC50 [2, 10] [µM] | IC50 [3, 11] [nM] | Metabolic Stability Study H = human [4] | Metabolic Stability Study M = mouse [6] | PK F [8] | EC50 [1, 12] [nM] | IC50 [3, 13] [nM] | PK CLiv ([8]; i.v.) [L/h/kg] | PK Vdiv ([8]; i.v.) [L/kg] | PK t1/2iv ([8]; i.v.) | PK CLpo ([8]; p.o.) [L/h/kg] | PK Vdpo ([8]; p.o.) | PK t1/2po ([8]; p.o.) | also measured |
| --- | --- | --- | --- | --- | --- | --- | --- | --- | --- | --- | --- | --- | --- | --- | --- |
| CC(NC(=O)Nc1ccc(S(=O)(=O)Cc2ccc3c(c2)CCNC3)cc1C(=O)O)c1ccccc1 (stereo not shown) [H1541, 2-(3-(1-phenylethyl)ureido)-5-(((1,2,3,4-tetrahydroisoquinolin-6-yl)methyl)sulfonyl)benzoic acid] | 9.7 | > 30 | 72.3 | H = <10 R = <10 μL/min/mg |  |  |  |  |  |  |  |  |  |  | Metabolic Stability Study R = rat [5]: H = <10 R = <10 μL/min/mg |
| COc1cc(NC(=O)NC(C)c2ccccc2)ccc1S(=O)(=O)Cc1ccc2c(c1)CNC2 (stereo not shown) [H1461, 1-(4-((isoindolin-5-ylmethyl)sulfonyl)-3-methoxyphenyl)-3-(1-phenylethyl)urea] | 3.5 | > 30 | 7.9 | 22.0 µL/min/mg | < 10 µL/min/mg |  |  |  |  |  |  |  |  |  | half-life [7]: 157 min; PK CL i.p. [7]: 2.30 L/h/kg; PK Vd i.p. [7]: 8.64 L/kg |
| CC(NC(=O)Nc1ccc(S(=O)(=O)Cc2ccc3c(c2)CN(C)C3)cc1O)c1ccccc1 (stereo not shown) [H1448, 1-(2-hydroxy-4-(((2-methylisoindolin-5-yl)methyl)sulfonyl)phenyl)-3-(1-phenylethyl)urea] |  |  |  | 28 µL/min/mg | 20.8 µL/min/mg | 1.90% |  |  |  |  |  |  |  |  | EC50 ([1]; HEK293/GRLN, read-out: Activity EC50 (ghrelin inverse agonist potency)): 3.3 nM; EC50 ([2]; HEK293/GHSR1a, read-out: Activity EC50/EMax: EC50 (ghrelin agonist potency)): > 30 µM; IC50 ([3]; HEK293/GHSR1a, ghrelin 10 nM, read-out: Activity IC50 (ghrelin antagonist potency)): 30.3 nM; PK CL p.o. ([8]; p.o.): 254.6 L/h/kg; PK Vd p.o. ([8]; p.o.): 242.2 L/kg; Vd ([8]; plasma, iv, 5 mg/kg): 9.26 L/kg; clearance ([8]; plasma, iv, 5 mg/kg, i.v., read-out: PK CL i.v.): 80.5 mL/min/kg; half-life ([8]; plasma, iv, 5 mg/kg, i.v., read-out: PK t1/2 i.v.): 79.8 min; half-life ([8]; plasma, po, 10 mg/kg, p.o., read-out: PK t1/2 p.o.): 39.6 min |
| CC(c1ccccc1)N(O)C(=O)Nc1ccc(S(=O)(=O)Cc2ccc3c(c2)CNC3)cc1 (stereo not shown) [H1472, 1-hydroxy-3-(4-((isoindolin-5-ylmethyl)sulfonyl)phenyl)-1-(1-phenylethyl)urea] | 3.25 | > 30 | 6 |  |  |  |  |  |  |  |  |  |  |  | half-life [7]: 146 min; PK CL i.p. [7]: 2.19 L/h/kg; PK Vd i.p. [7]: 7.71 L/kg |
| CC(NC(=O)Nc1ccc(S(=O)(=O)Cc2ccc3c(c2)CN(CC2CC2)C3)cc1)c1ccccc1 (stereo not shown) [H1220, 1-(4-(((2-(cyclopropylmethyl)isoindolin-5-yl)methyl)sulfonyl)phenyl)-3-(1-phenylethyl)urea] |  |  |  | 183.8 µL/min/mg | 248 µL/min/mg | 4.71% | 30.4 | 3.61 | 3.05 | 3.08 | 0.7 h | 61.6 | 78.7 L/kg | 0.89 h |  |
| C[C@H](NC(=O)Nc1ccc(S(=O)(=O)Cc2ccc3c(c2)CCNC3)cc1)c1cccc(Cl)c1Cl [H1027, (S)-1-(1-(2,3-dichlorophenyl)ethyl)-3-(4-(((1,2,3,4-tetrahydroisoquinolin-6-yl)methyl)sulfonyl)phenyl)urea] |  |  |  | H = <10 M = <10 R = not reported D = not reported μL/min/mg | H = <10 M = <10 R = not reported D = not reported μL/min/mg | F = 0.72 (M); % | 1.62 | 2.5 | 0.71 | 1.64 | 1.61 (M); h | 85.67 | 345 (M); L/Kg | 2.79 (M); h | PK F ([7]; rat): 57.14 (R) %; PK CLiv ([7]; rat, i.v.): 12.34 L/h/kg; PK Vdiv ([7]; rat, i.v.): 168.2 L/kg; PK t1/2iv ([7]; rat, i.v.): 10.2 (R) h; PK CLpo ([7]; rat, p.o.): 24.98 L/h/kg; PK Vdpo ([7]; rat, p.o.): 80.4 (R) L/Kg; PK t1/2po ([7]; rat, p.o.): 2.21 (R) h |
| O=C(NCc1ccccc1Cl)Nc1ccc(S(=O)(=O)Cc2ccc3c(c2)CCNC3)cc1 [H1039, 1-(2-chlorobenzyl)-3-(4-(((1,2,3,4-tetrahydroisoquinolin-6-yl)methyl)sulfonyl)phenyl)urea] |  |  |  | < 10 µL/min/mg | 13.5 µL/min/mg | 0.6% | 33.3 | 113 | 2.55 | 11.7 | 3.18 h | 334.4 | 898 L/kg | 1.86 h |  |
| C[C@H](NC(=O)Nc1ccc(S(=O)(=O)Cc2ccc(CC(C)(C)N(C)C)cc2)cc1)c1cccc(Cl)c1Cl [H1010, (S)-1-(1-(2,3-dichlorophenyl)ethyl)-3-(4-((4-(2-(dimethylamino)-2-methylpropyl)benzyl)sulfonyl)phenyl)urea] |  |  |  | H = 40.5 M = 40.5 R = not reported D = not reported μL/min/mg | H = 40.5 M = 40.5 R = not reported D = not reported μL/min/mg | 3.09% | 15 | 42 | 3.34 | 1.39 | 1.39 h | 108.2 | 169 L/kg | 1.08 h |  |
